Laboratory results from paper PMC6479946 (Molecules, 2019).
“And” between values parts separate entries of the source, which are not always exact repeats. Equal entries are not always repeated. Where two headings read alike, the source gives them in different places.

Legend:
CYP3A4 = conditions: rat liver microsomes; cited from earlier work
in vivo = conditions: for AUC(0-inf) / Tmax / AUC(0-t) / CL/F / Cmax / k el / MRT: male, Sprague-Dawley, po, 5 mg/kg; for AUC(0-inf): AUC(0-∞) of MEM; for AUC(0-inf) / Tmax / AUC(0-t) / CL/F / Cmax / k el / MRT / Ka of MEM / T1/2a of MEM / T1/2d of MEM / Vd of MEM: n = 8, mean ± SD; for Tmax: Tmax of MEM; for AUC(0-t): AUC(0-t) of MEM; for CL/F: CL/F of MEM; for Cmax: Cmax of MEM; for k el: Ke of MEM; for MRT: MRT of MEM
Experimental: The analytes were separated on an ACQUITY UPLC BEH C18 column (2.1 mm × 50 mm, 1.7 μm, Waters, Milford, USA). […] The flow rate was 0.3 mL/min. The column and sample-tray temperature were kept at 40 °C and 4 °C, respectively. The injection volume was 5.0 μL using a partial loop with needle over fill mode.
The compound dependent parameters used for analysis were summarized in Supplementary materials Table S1.
A rapid and convenient precipitation method was used to prepare the plasma samples. A 100 μL aliquot of plasma sample was spiked with 100 μL of IS solution and 300 μL of methanol in a 1.5 mL centrifuge tube; subsequently, the mixtures were vortex-mixed for 30.0 s and then centrifuged at 1.5 × 10^4× g for 10 min at 4 °C. A 100 μL aliquot of supernatant was combined with 25.0 μL of 0.1% formic acid water in a clean centrifuge tube and then vortex-mixed for 30 s. A 5.0 μL aliquot of mixture was injected into the UPLC-MS/MS system for analysis.
Fifty-six pathogen-free male adult rats were randomly divided into seven groups with eight rats in each group for pharmacokinetic study. […] One group was intragastrically administered with MEM hydrochloride 5.0 mg/kg dissolved in ultrapure water, namely, MEM group. […] The blood samples were immediately centrifuged at 4.0 × 10^3× g at […] for 10 min, and 100 μL of the supernatant plasma was transferred into another new 1.5 mL centrifuge tube and stored at −20 °C until UPLC-MS/MS analysis.
All standard curves and quantitative data were processed by Agilent Mass Hunter Quantitative Analysis Workstation Software. […] All the pharmacokinetic parameters were processed using the non-compartmental pharmacokinetics data analysis software program PK solutions 2.0^TM (Summit Research Services, USA). […] The AUC(0-t) was obtained by the linear/logarithmic trapezoidal rule, and the area under the plasma concentration versus time curve from zero to infinity (AUC(0-∞)) was calculated by means of the trapezoidal rule with extrapolation to infinity with a terminal elimination rate constant. The Pearson correlation coefficient analysis was processed by IBM SPSS Statistics Version 21. A statistical analysis was performed using analysis of variance with α = 0.05 as the minimal level of significance.

[1] = rats, cited from earlier work
CYP2D6 = conditions: rat liver microsomes; cited from earlier work
CYP1A2 = conditions: rat liver microsomes; cited from earlier work
[2] = rat, plasma, rat plasma, oral MEM 5.0 mg/kg + HAR 20.0 mg/kg (HAR-L + MEM)
[3] = rat, plasma, rat plasma, oral MEM 5.0 mg/kg + HAR 40.0 mg/kg (HAR-M + MEM)
[4] = rat, plasma, rat plasma, oral MEM 5.0 mg/kg + HAR 80.0 mg/kg (HAR-H + MEM)
[5] = rat, plasma, rat plasma, oral MEM 5.0 mg/kg alone (MEM group)
[6] = rat plasma, oral MEM 5.0 mg/kg + HAR 20.0 mg/kg (HAR-L + MEM)
[7] = rat plasma, oral MEM 5.0 mg/kg + HAR 40.0 mg/kg (HAR-M + MEM)
[8] = rat plasma, oral MEM 5.0 mg/kg + HAR 80.0 mg/kg (HAR-H + MEM)
[9] = rat plasma, oral MEM 5.0 mg/kg alone (MEM group)

Compound: CC12CC3CC(C)(C1)CC(N)(C3)C2 [MEM, 1-amino-3,5-dimethyladamantane, reference compound]
- inhibition of CYP3A4 (CYP3A4): weak inhibitor
- AUC(0-inf) (in vivo; rat, in vivo, rat plasma, oral MEM 5.0 mg/kg + HAR 80.0 mg/kg (HAR-H + MEM)): 781 ± 285 ng·h/mL
- Tmax (in vivo; rat, in vivo, rat plasma, oral MEM 5.0 mg/kg + HAR 20.0 mg/kg (HAR-L + MEM)): 3.13 ± 2.23 h
- AUC(0-t) (in vivo; [2]): 392 ± 55.2 ng·h/mL
- AUC(0-t) (in vivo; [3]): 472 ± 105 ng·h/mL
- AUC(0-t) (in vivo; [4]): 603 ± 149 ng·h/mL
- AUC(0-t) (in vivo; [5]): 349 ± 46.2 ng·h/mL
- AUC(0-inf) (in vivo; [2]): 477 ± 75.1 ng·h/mL
- AUC(0-inf) (in vivo; [3]): 547 ± 142 ng·h/mL
- AUC(0-inf) (in vivo; [5]): 367 ± 4.87 ng·h/mL
- CL/F (in vivo; [2]): 178 mL/min/kg
- CL/F (in vivo; [3]): 162 mL/min/kg
- CL/F (in vivo; [4]): 118 mL/min/kg
- CL/F (in vivo; [5]): 230 mL/min/kg
- Cmax (in vivo; [2]): 50.5 ± 7.59 ng/mL
- Cmax (in vivo; [3]): 74.9 ± 15 ng/mL
- Cmax (in vivo; [4]): 74.3 ± 26.6 ng/mL
- Cmax (in vivo; [5]): 84.8 ± 25.8 ng/mL
- k el (in vivo; [2]): 5.31e-05 s⁻¹
- k el (in vivo; [3]): 5.97e-05 s⁻¹
- k el (in vivo; [4]): 5.64e-05 s⁻¹
- k el (in vivo; [5]): 7.25e-05 s⁻¹
- MRT (in vivo; [2]): 7.45 ± 1.51 h
- MRT (in vivo; [3]): 6.25 ± 1.25 h
- MRT (in vivo; [4]): 8.5 ± 3.74 h
- MRT (in vivo; [5]): 4.04 ± 0.808 h
- Tmax (in vivo; [3]): 1.56 ± 1.11 h
- Tmax (in vivo; [4]): 4 ± 1.85 h
- Tmax (in vivo; [5]): 1.31 ± 0.579 h
- Ka of MEM (in vivo; [6]): 0.595 ± 0.315 h⁻¹
- T1/2a of MEM (in vivo; [6]): 1.37 ± 0.468 h
- T1/2d of MEM (in vivo; [6]): 2.42 ± 1.06 h
- Vd of MEM (in vivo; [6]): 60.1 ± 19.3 L/kg
- Ka of MEM (in vivo; [7]): 1.08 ± 1.05 h⁻¹
- T1/2a of MEM (in vivo; [7]): 0.945 ± 0.398 h
- T1/2d of MEM (in vivo; [7]): 1.67 ± 0.560 h
- Vd of MEM (in vivo; [7]): 48.4 ± 16.4 L/kg
- Ka of MEM (in vivo; [8]): 0.481 ± 0.203 h⁻¹
- T1/2a of MEM (in vivo; [8]): 1.61 ± 0.459 ^bb h
- T1/2d of MEM (in vivo; [8]): 1.61 ± 0.529 h
- Vd of MEM (in vivo; [8]): 38.3 ± 13.1 L/kg
- MEM in plasma within 24.0 h after co-administrations (in vivo; rat plasma, oral MEM 5.0 mg/kg + HAR 20.0, 40.0 or 80.0 mg/kg): a small amount of MEM could still be detected
- MEM in plasma after 24 h of administration (in vivo; [9]): no MEM was detected
- Ka of MEM (in vivo; [9]): 1.73 ± 0.848 h⁻¹
- T1/2a of MEM (in vivo; [9]): 0.482 ± 0.202 h
- T1/2d of MEM (in vivo; [9]): 3.08 ± 2.37 h
- Vd of MEM (in vivo; [9]): 53.8 ± 10.6 L/kg
- T1/2e of MEM (in vivo; rat, in vivo): 2.69 ± 0.306 h and 3.96 ± 1.44 h and 3.62 ± 1.42 h and 4.27 ± 3.03 h
- T1/2e of MEM ([1]; administered orally with 1.22 mg eq./mL MEM): 2.23 h
- T1/2e of MEM ([1]; administered orally with 2.00 mg eq./mL MEM): 3.92 h
- inhibition of CYP2D6 (CYP2D6): strong inhibitor
- inhibition of CYP1A2 (CYP1A2): weak inhibitor
